According to patent publication US8338422B2, “Indolin-2-ones and aza-indolin-2-ones” (Janssen Pharmaceutica NV, priority 2007, dated 2012):

Tests used:
PLK4 (h) = PLK4 (h) (Homo sapiens, UniProt O00444); test: PLK-4 human kinase assay (SPA); format: biochemical; details: for IC50: read-out: PLK4 pIC50 (converted)
Method in brief: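 Radiometric readout: 33P-labelled peptide captured on streptavidin SPA beads after EDTA stop, imaged by Leadseeker. Reaction ran 60 min at room temperature in Hepes pH 8.0 buffer. It contained 1 μM ATP with 2 nM [γ-33P]ATP, 10 μM biotinylated peptide and PLK4 (h) at 19 μg/ml.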

CDK1/CyclinB (h) = CDK1/CyclinB (h) (Homo sapiens, UniProt P06493); test: CDK1/CyclinB human kinase assay (FRET); format: biochemical; details: for IC50: read-out: CDK1 pIC50 (converted)
Chain of CDK1/CyclinB (h) (P06493 whole entry): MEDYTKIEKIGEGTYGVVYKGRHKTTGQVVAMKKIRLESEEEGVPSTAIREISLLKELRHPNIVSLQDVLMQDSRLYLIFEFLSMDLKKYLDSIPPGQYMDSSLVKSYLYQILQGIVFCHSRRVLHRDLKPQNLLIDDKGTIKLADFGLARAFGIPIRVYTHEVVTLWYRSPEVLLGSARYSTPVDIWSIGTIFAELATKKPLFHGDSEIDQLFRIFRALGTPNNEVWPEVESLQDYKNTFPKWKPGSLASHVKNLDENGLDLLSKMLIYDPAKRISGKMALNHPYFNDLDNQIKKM
Chain of CDK1/CyclinB (h) (P14635 whole entry partner): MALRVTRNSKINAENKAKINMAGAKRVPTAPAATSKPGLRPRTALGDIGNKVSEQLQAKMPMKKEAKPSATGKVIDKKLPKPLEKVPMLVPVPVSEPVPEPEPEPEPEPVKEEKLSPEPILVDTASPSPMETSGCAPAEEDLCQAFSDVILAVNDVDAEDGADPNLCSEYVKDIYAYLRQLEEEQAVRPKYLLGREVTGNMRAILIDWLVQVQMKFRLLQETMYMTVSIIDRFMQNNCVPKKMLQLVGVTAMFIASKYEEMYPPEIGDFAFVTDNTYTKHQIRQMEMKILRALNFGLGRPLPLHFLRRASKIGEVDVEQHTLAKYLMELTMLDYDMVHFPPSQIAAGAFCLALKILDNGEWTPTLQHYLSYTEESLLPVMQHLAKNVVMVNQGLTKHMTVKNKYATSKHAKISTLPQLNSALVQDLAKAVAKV
Method in brief: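 Z'-LYTE FRET format: 0.2 μg/ml enzyme with 2 μM Ser/Thr peptide 12 and 10 μM ATP in 50 mM Hepes pH 7.5, 10 mM MgCl2, 1 mM EGTA, 0.01% Brij-35, 60 min at room temperature. Protease development 60 min; coumarin/fluorescein emission ratio (460/538 nm, excitation 390 nm) reports phosphorylation.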

GSK3β (h) = GSK3β (h) (Homo sapiens, UniProt P49841); test: GSK-3β human kinase assay (SPA); format: biochemical; details: for IC50: read-out: GSK3B pIC50 (converted)
Chain of GSK3β (h) (P49841 whole entry): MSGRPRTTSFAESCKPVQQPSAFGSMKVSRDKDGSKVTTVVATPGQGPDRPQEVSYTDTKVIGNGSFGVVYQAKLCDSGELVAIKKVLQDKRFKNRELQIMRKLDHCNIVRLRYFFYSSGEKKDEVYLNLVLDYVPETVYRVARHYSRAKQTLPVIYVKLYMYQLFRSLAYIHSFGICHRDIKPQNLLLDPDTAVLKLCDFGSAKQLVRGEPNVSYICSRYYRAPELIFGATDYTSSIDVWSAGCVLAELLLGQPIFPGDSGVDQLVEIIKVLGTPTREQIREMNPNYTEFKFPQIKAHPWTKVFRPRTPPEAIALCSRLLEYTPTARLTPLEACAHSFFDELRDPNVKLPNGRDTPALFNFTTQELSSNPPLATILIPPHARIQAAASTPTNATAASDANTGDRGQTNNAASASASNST
Method in brief: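 Radiometric SPA read-out: after EDTA stop, biotinylated 33P-labelled peptide bound streptavidin PVT beads and was imaged on Leadseeker. Reaction: 60 min, room temperature, GSK3β (h) at 1 μg/ml, 1 μM substrate peptide, 1 μM ATP with 2 nM [γ-33P]ATP, Tris pH 7.4/MgCl2/DTT buffer.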

H1299 = test: Cellular proliferation assay (Alamar blue), H1299; format: cell-based; details: H1299 cells, 72 hours with compound, 10% FCS; for IC50: Homo sapiens, NCI-H1299, 72 h, read-out: pIC50 H1299 (converted)
Method in brief: (§1)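 Proliferation was assessed over 72 h of compound treatment, following 24 h of seeding without compound, under 10% FCS, 37° C. and 5% CO2. Fluorescent resazurin product was measured and compared with control cells.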

U87MG = test: Cellular proliferation assay (Alamar blue), U87MG; format: cell-based; details: U87MG cells, 72 hours with compound, 10% FCS; for IC50: Homo sapiens, U-87 MG, 72 h, read-out: pIC50 U87MG (converted)
Method in brief: as §1

HCT-116 = test: Cellular proliferation assay (Alamar blue), HCT-116; format: cell-based; details: HCT-116 cells, 72 hours with compound, 10% FCS; for IC50: Homo sapiens, HCT-116, 72 h, read-out: pIC50 HCT-116 (converted)
Method in brief: as §1

PC-3 = test: Cellular proliferation assay (Alamar blue), PC-3; format: cell-based; details: PC-3 cells, 72 hours with compound, 10% FCS; for IC50: Homo sapiens, PC-3, 72 h, read-out: pIC50 PC-3 (converted)
Method in brief: as §1

MDA/MB231 = test: Cellular proliferation assay (Alamar blue), MDA/MB231; format: cell-based; details: MDA/MB231 cells, 72 hours with compound, 10% FCS; for IC50: Homo sapiens, MDA-MB-231, 72 h, read-out: pIC50 MDA/MB231 (converted)
Method in brief: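 Seed cells, 24 h, no compound; add compound, 72 h, 10% FCS, 37° C./5% CO2; add resazurin 9 μg/ml with K-ferrocyanide and K-ferricyanide 90 μM each (4 h H460, 24 h MDA-MB-231); read fluorescence 544/590 nm; effect vs control cells.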

A2780 = test: Cellular proliferation assay (Alamar blue), A2780; format: cell-based; details: A2780 cells, 72 hours with compound, 10% FCS; for IC50: Homo sapiens, A2780, 72 h, read-out: pIC50 A2780 (converted)
Method in brief: as §1

AuroraB (h) = AuroraB (h) (Homo sapiens, UniProt Q96GD4); test: Aurora-B human kinase assay (SPA); format: biochemical; details: for IC50: read-out: AuroraB pIC50 (converted)
Chain of AuroraB (h) (Q96GD4 whole entry): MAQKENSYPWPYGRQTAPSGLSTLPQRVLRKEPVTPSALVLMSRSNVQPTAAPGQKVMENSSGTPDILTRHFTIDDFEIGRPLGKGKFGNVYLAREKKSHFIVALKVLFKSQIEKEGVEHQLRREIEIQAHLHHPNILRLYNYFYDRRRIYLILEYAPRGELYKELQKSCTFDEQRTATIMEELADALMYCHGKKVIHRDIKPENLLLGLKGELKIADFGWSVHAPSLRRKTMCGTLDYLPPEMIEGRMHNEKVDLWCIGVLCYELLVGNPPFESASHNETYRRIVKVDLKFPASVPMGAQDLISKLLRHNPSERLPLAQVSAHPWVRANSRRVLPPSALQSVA
Method in brief: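 Scintillation proximity assay: AuroraB (h) at 0.5 μg/ml with 3 μM biotinylated peptide, 0.5 μM ATP and 2.2 nM [γ-33P]ATP in 60 mM Hepes pH 7.5, 3 mM MgCl2, 3 mM MnCl2, 2 mM DTT. 60 min at room temperature, EDTA stop, streptavidin PVT beads read on Leadseeker.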

Chain of PLK4 (h) (O00444 whole entry): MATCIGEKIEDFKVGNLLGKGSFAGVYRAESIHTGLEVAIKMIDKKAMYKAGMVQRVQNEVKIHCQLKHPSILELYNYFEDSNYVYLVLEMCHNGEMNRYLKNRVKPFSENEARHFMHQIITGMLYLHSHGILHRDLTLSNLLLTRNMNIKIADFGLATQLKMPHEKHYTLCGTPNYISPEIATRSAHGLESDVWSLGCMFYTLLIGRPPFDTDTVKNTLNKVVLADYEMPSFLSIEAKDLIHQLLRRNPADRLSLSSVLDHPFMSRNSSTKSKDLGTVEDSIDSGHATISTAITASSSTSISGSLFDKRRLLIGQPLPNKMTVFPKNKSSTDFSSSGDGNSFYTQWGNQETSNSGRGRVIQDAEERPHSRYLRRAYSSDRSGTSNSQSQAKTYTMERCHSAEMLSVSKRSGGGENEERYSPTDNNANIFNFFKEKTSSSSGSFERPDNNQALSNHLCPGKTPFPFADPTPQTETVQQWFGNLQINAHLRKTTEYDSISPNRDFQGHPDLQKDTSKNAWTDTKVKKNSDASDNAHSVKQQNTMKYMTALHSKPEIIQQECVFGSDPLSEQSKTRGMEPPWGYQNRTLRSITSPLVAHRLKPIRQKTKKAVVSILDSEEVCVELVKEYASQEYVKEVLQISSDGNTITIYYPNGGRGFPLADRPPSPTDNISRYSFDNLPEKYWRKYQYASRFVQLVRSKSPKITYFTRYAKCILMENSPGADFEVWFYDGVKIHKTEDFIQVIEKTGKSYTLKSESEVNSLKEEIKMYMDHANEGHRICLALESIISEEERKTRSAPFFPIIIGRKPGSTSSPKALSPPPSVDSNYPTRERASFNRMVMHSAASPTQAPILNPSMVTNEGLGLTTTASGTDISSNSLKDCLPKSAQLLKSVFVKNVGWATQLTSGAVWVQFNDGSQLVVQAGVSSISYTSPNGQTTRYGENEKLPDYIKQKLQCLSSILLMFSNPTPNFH

IC50 (PLK4 (h)) [µM]	IC50 (CDK1/CyclinB (h)) [µM]	IC50 (GSK3β (h)) [µM]	IC50 (H1299) [µM]	IC50 (U87MG) [µM]	IC50 (HCT-116) [µM]	IC50 (PC-3) [µM]	IC50 (A2780) [µM]	IC50 (AuroraB (h)) [µM]	SMILES	PLK4 pIC50 (PLK4 (h))	CDK1 pIC50 (CDK1/CyclinB (h))	GSK3B pIC50 (GSK3β (h))	pIC50 H1299 (H1299)	pIC50 U87MG (U87MG)	pIC50 HCT-116 (HCT-116)	pIC50 PC-3 (PC-3)	pIC50 MDA/MB231 (MDA/MB231)	pIC50 A2780 (A2780)	AuroraB pIC50 (AuroraB (h))	IC50 (MDA/MB231) [µM]
									CN1CCNc2ncnc3c2C(=CNc2cccc(c2)OCCCC1=O)C(=O)N3 (mixture of isomers) [Compound 58]	6.75	6.16	6.88	5.89	5.13	6.17	<5	<5	6.2	6.33	
0.105	0.0479	0.115	0.562	5.25	0.55	> 10	> 10	0.191	COc1cc2cc(c1OC)OCCCC(=O)N(C)CCCNc1ncnc3c1/C(=C/N2)C(=O)N3 [Compound 112]											> 10
									COc1ccc2cc1OCCCCC(=O)NCCN(C)c1ncnc3c1C(=CN2)C(=O)N3 (mixture of isomers) [Compound 44]	5.22	<5	5.31	<5	<5	<5	<5	<5	<5	<5	
									COc1cc2cc(c1OC)OCC(=O)N(C)CCCCNc1ncnc3c1C(=CN2)C(=O)N3 (mixture of isomers) [Compound 150]	<5	<5	<5	<5	<5	<5	<5	<5	<5	5.23	
2.34	> 10	0.794	> 10	> 10	> 10	> 10	> 10	> 10	CN1CCCN(C)c2ncnc3c2/C(=C/Nc2cccc(c2)OCCCCCCC1=O)C(=O)N3 [Compound 53]											> 10
									COc1ccc2cc1OCCCCCC(=O)NCCN(C)c1ncnc3c1C(=CN2)C(=O)N3 (mixture of isomers) [Compound 46]	5.18	<5	5.07	<5	5.04	<5	<5	<5	<5	5.13	
7.41	> 10	> 10	> 10	> 10	> 10	> 10	> 10	> 10	CN1CCNC(=O)CCCCCCOc2cc(ccc2Cl)N/C=C2\C(=O)Nc3ncnc1c32 [Compound 49]											> 10
1.78	5.01	2.45	> 10	> 10	> 10	> 10	> 10	> 10	CN1CCNC(=O)CCCCCOc2cccc(c2)N/C=C2\C(=O)Nc3ncnc1c32 [Compound 41]											> 10
									CN1CCN(c2ccc3cc2OCCCCC(=O)N(C)CCNc2ncnc4c2C(=CN3)C(=O)N4)CC1 (mixture of isomers) [Compound 135]	6.67	<5	6.2	5.31	<5	5.21	<5	<5	<5	<5	
3.72	5.62	0.282	> 10	7.94	3.8	> 10	> 10	1.26	CN1CCNc2ncnc3c2/C(=C/Nc2cccc(c2)OCCCCCC1=O)C(=O)N3 [Compound 39]											> 10
> 10	> 10	> 10	> 10	> 10	> 10	> 10	> 10	> 10	COc1ccc2cc1CN(C)CCCCC(=O)NCCN(C)c1ncnc3c1/C(=C/N2)C(=O)N3 [Compound 51]											> 10
> 10	> 10	> 10	> 10	> 10	> 10	> 10	> 10	> 10	COc1ccc2cc1CN(C)CCCCCC(=O)NCCN(C)c1ncnc3c1/C(=C/N2)C(=O)N3 [Compound 48]											> 10
									COc1ccc2cc1OCCCC(=O)N(C1CCCCC1)CCCNc1ncnc3c1C(=CN2)C(=O)N3 (mixture of isomers) [Compound 145]	6.61	<5	6.4	6.08	5.45	6.04	6.04	5.73	5.53	6.41	
2.24	> 10	2	> 10	> 10	> 10	> 10	> 10	> 10	CN1CCNC(=O)CCCCCCOc2cccc(c2)N/C=C2\C(=O)Nc3ncnc1c32 [Compound 36]											> 10
> 10	> 10	> 10	> 10	> 10	> 10	> 10	> 10	> 10	COc1ccc2cc1CN(C)CCCCCCC(=O)NCCN(C)c1ncnc3c1/C(=C/N2)C(=O)N3 [Compound 50]											> 10
8.71	> 10	6.03	> 10	> 10	> 10	> 10	> 10	> 10	COc1cc2cc(c1OC)CN(C)CC(=O)N(C)CCN(C)CCNc1ncnc3c1/C(=C/N2)C(=O)N3 [Compound 155]											> 10
									COc1cc2cc(c1OC)OCCCCC(=O)N(C)CCCNc1ncnc3c1C(=CN2)C(=O)N3 (mixture of isomers) [Compound 134]	6.6	5.68	5.35	5.76	<5	5.79	5.44	5.03	5.07	6.59	
9.55	> 10	4.47	> 10	7.24	1.95	> 10	> 10	6.61	CN1CCNC(=O)CCCCCOc2cc(ccc2Cl)N/C=C2\C(=O)Nc3ncnc1c32 [Compound 52]											> 10

SMILES	IC50 (PLK4 (h)) [µM]	IC50 (CDK1/CyclinB (h)) [µM]	IC50 (GSK3β (h)) [µM]	IC50 (H1299) [µM]	IC50 (U87MG) [µM]	IC50 (HCT-116) [µM]	IC50 (PC-3) [µM]	IC50 (A2780) [µM]	IC50 (AuroraB (h)) [µM]	PLK4 pIC50 (PLK4 (h))	CDK1 pIC50 (CDK1/CyclinB (h))	GSK3B pIC50 (GSK3β (h))	pIC50 H1299 (H1299)	pIC50 U87MG (U87MG)	pIC50 HCT-116 (HCT-116)	pIC50 PC-3 (PC-3)	pIC50 MDA/MB231 (MDA/MB231)	pIC50 A2780 (A2780)	AuroraB pIC50 (AuroraB (h))	IC50 (MDA/MB231) [µM]
CN1CCNc2ncnc3c2/C(=C/Nc2cccc(c2)OCC(=O)N(C)CC1)C(=O)N3 [Compound 148]	1.82	> 10	1	> 10	> 10	> 10	> 10	> 10	4.47											> 10
